Measurements: patent publication US9675662B2, “Compositions for inhibition of RNA polymerase I and methods of production and use thereof” (The Board of Regents of the University of Oklahoma, priority 2011, dated 2017)
“Also recorded” adds a separate entry of the source. Like-named read-outs stand apart in the source and are kept apart here. Where no end group is shown, it is not given here. The star is where a group is joined. Biotin = O=C1N[C@H]2[C@H](CS[C@H]2CCCCC(=O)*)N1

How the values were obtained:
Rrn3 = target: T1, Rrn3 (Homo sapiens, UniProt Q9NYV6); assay: Binding of purified recombinant Rrn3 to streptavidin beads carrying biotinylated 22mer (pull-down, western blot); conditions: western blotting for Rrn3 (anti-FLAG)
T1 construct: made in house
Protocol: Immunoaffinity purified Rrn3 was incubated with streptavidin beads that had been preincubated with biotin-tagged 22mer or control extracts. After the beads were washed the proteins bound to the beads were analyzed by SDS-PAFE and western blotting for Rrn3 (anti-FLAG antibody).
In order to address that question, a biotinylated peptide made up of those 22 amino acids (biotin-[…] (SEQ ID NO:1)) was attached to streptavidin beads, and the ability to bind purified, recombinant Rrn3 was determined.

293T cells = assay: Growth of 293T-based cell lines expressing doxycycline-inducible peptide; conditions: peptide expressed in cells grown in doxycycline; versus Ψ peptide
Source text: To confirm and extend these studies, cell lines were constructed that were based on 293T cells (Invitrogen, Carlsbad, Calif.), that expressed doxycycline-inducible 22mer or the random peptide (Ψ). […] N.B., there was an inhibition of growth.

WI38 cells = assay: Growth of WI38 cells (MTT assay) and peptide uptake; format: cell-based; conditions: 48 hours
Protocol: FIG. 11 illustrates the effects of TAT-22mer on WI38 cells after 48 hours using the MTT assay.
(§1) In these experiments, and in others described below, cell numbers were determined using the […], and the absorbance at 570 nm is presented instead of cell numbers.

[1] = tested on: rDNA transcription (RNA polymerase I); assay: Cell-free rDNA transcription reaction (N1S1 nuclear extracts, rat rDNA promoter); format: biochemical; conditions: added in excess to transcription reaction
Source text: FIG. 6 illustrates squelching by excess Rpa43 or the peptide (22mer) that mediates the interaction between Rpa43 and Rrn3.
To test this model, recombinant Rpa43 was purified and added to cell free transcription reactions to determine if excess Rpa43 could inhibit transcription. The components added to this reaction included nuclear extracts of N1S1 cells (a rat tumor cell line), and recombinant DNA of the rat rDNA promoter and the purified, recombinant Rpa43 or purified synthetic peptides (FIG. 6). […] A similar series of experiments was then undertaken with synthetic peptides. The two peptides were based on the sequence of the region shown to be required for the interaction between Rrn3 and Rpa43 (FIG. 6, Panel B).

N1S1 rat hepatoma cells = assay: Growth of N1S1 hepatoma cells after peptide transduction; format: cell-based
Protocol: FIG. 14 illustrates the effects of TAT-22mer (labeled “STBY”) on the growth of N1S1 rat hepatoma cells.
FIG. 15 illustrates the effects of TAT-22mer (labeled “STBY”) on the growth of N1S1 rat hepatoma cells (fresh peptide added after 24 hours).
This effect was then tested […], i.e. with immortalized cells in tissue culture. There are several possible ways of introducing the desired peptide into cells. In a first experiment, ten amino acids, YGRKKEEQRR (SEQ ID NO:176), were added to the N-terminus of the 22mer peptide, […] (resulting in a sequence of […] (SEQ ID NO:175)); the ten amino acids were added to assist in transduction of the peptide into the cells. The TAT peptide is an NH2-terminal 11-amino acid protein transduction domain (PTD) from the human immunodeficiency virus (HIV) TAT protein that was first identified in 1988 by Green et al. This peptide and peptides like it are capable of transducing proteins across the cell membrane.
The effects of transducing the 22mer coupled to TAT peptide were then compared to TAT peptide alone. An aggressive chemically-induced hepatoma cell line (N1S1 cells) was used for these experiments.
(§2) When the sequence of the 22mer was examined, it was noted that it contains two cysteine residues that might form a disulfide bond and inhibit the activity of the peptide. To examine this question, the experiment previously carried out on the N1S1 cells was repeated using peptide that was dissolved in 0.1 mM […].

NIH 3T3 cells = assay: Growth of NIH 3T3 cells after 48 hours; format: cell-based; conditions: three plating densities, 40 and 60 μM
Protocol: FIG. 10 illustrates the effects of a TAT-tagged 22mer (TAT-22mer) composition of the presently disclosed inventive concept(s) on NIH 3T3 cells plated at three different densities after 48 hours.
However, it was possible that the same peptide would inhibit the growth of “normal” cells as well. To examine this possibility, TAT-tagged 22mer was added to the media of NIH 3T3 cells, and growth was measured after 48 hours.
as §1

A431 cells = assay: Growth of A431 cells plated at low density; format: cell-based; conditions: 72 hr
Protocol: FIG. 12 illustrates the effects of TAT-22mer on the growth of A431 cells plated at low density after 72 hr.
as §1

[2] = tested on: rDNA transcription in N1S1 cells; assay: [3H]-uridine incorporation into newly synthesized RNA in transduced N1S1 cells; format: cell-based, rat; conditions: 40 μM, eight hours after transduction
Protocol: FIG. 7 illustrates that transduction of the 22mer inhibits rDNA transcription in tissue culture cells. Low density cultures of N1S1 cells were transduced with the TAT-22mer (40 μM). Eight hours after transduction, the cells were incubated with tritiated uridine to label newly synthesized RNA. Total RNA was precipitated with TCA and collected on glass fiber filters, and the radioactivity incorporated was measured by liquid scintillation counting.

[3] = tested on: P1798 mouse lymphosarcoma cells; assay: Growth and viability (Trypan blue exclusion) of P1798 lymphosarcoma cells; format: cell-based
Source text: FIG. 16 illustrates the effect of TAT-22mer on P1798 mouse lymphosarcoma cells.
FIG. 17 contains micrographs of P1798 mouse lymphosarcoma cells treated with TAT-22mer (“STBY peptide”) at indicated doses. The cells were stained with trypan blue to determine viability.
FIG. 18 illustrates the effects of TAT-22mer (TAT-STBY) and TAT-STBY C-Mu on P1798 mouse lymphosarcoma cells.
FIG. 19 illustrates the effects of TAT-22mer (TAT-STBY) and TAT-STBY C-Mu on the viability of P1798 mouse lymphosarcoma cells. The same cells studied in the experiment presented in FIG. 18, were also stained with Trypan blue to determine viability. The viable cell counts at 10 and 24 hrs of treatment were too low to be considered reliable (*).
FIG. 20 illustrates the effects of TAT-22mer (TAT-STBY) and TAT-STBY C-Mu on the viability of P1798 mouse lymphosarcoma cells as analyzed in FIGS. 18 and 19.
FIG. 21 illustrates the effects of TAT-22mer (TAT-STBY) and TAT-STBY C-Mu on P1798 mouse lymphosarcoma cells. P1798 Cells were treated with TAT-STBY C-Mu for 26 hours and then stained with Trypan blue. […] The treated cells were concentrated 20× for photography.
FIG. 22 illustrates the kinetics of cell death following treatment with C-Mu peptide. […] Cells were harvested by centrifugation every two hours, and the numbers of viable cells were determined using the Trypan blue exclusion assay.
as §2
In fact, automated cell-cell counting was inaccurate due to the increased amount of dead cells and debris (FIGS. 19-20).

[4] = tested on: U937 human lymphoma cells; assay: Growth of U937 cells; format: cell-based
Protocol: FIG. 13 illustrates the effects of TAT-22mer on the growth of U937 cells after 24 hours.
as §1

T1 sequence (Q9NYV6 whole entry, species assumed): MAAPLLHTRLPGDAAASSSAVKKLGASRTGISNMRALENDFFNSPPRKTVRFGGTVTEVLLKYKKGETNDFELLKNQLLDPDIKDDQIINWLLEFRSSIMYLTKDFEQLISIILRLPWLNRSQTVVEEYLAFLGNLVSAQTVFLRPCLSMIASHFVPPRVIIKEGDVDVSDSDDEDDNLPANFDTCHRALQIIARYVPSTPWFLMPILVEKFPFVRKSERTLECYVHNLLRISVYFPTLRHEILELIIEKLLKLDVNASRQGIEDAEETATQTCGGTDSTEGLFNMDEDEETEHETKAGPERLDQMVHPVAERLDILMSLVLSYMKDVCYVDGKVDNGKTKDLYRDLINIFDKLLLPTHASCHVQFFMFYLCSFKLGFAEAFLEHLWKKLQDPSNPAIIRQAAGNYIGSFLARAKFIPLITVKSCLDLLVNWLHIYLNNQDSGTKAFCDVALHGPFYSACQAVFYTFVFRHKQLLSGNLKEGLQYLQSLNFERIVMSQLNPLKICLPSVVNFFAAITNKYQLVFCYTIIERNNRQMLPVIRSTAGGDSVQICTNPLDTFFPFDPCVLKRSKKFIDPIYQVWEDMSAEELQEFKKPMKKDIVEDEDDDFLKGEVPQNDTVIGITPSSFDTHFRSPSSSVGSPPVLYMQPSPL

| Substance | binding of Rrn3 to bead-bound peptide (Rrn3) | binding of Rrn3 to bead-bound peptide (Rrn3; listed as biotin-tagged 22mer) | cell growth / rate of cell division (293T cells) | growth of WI38 cells (WI38 cells) | inhibition of cell-free rDNA transcription [1] | N1S1 cell growth / cell division (N1S1 rat hepatoma cells) | appearance of N1S1 cells (N1S1 rat hepatoma cells; 40 μM, after 48 hr) | rate of N1S1 cell accumulation (N1S1 rat hepatoma cells; 20 and 40 μM) | growth of 3T3 cells (NIH 3T3 cells) | growth of A431 cells (A431 cells) | inhibition of rDNA transcription ([2]; inferred from uridine incorporation) | inhibition of [3H]-uridine incorporation ([2]; low density N1S1 cultures) | growth of P1798 cells [3] | Trypan blue dye exclusion by P1798 cells ([3]; 40 μM) | response of P1798 cells at 40 micromolar ([3]; 40 micromolar, cells grown in a reducing medium) | number of viable P1798 cells ([3]; photomicrographs, Trypan blue) | growth of U937 cells [4] | growth of U937 cells at 80 μM ([4]; 80 μM, 24 hours) | N1S1 cell growth / cell division (N1S1 rat hepatoma cells; listed as STBY) | decrease in number of treated N1S1 cells (N1S1 rat hepatoma cells; peptide dissolved in 0.1 mM reducing agent (dithiothreitol), fresh peptide added after 24 hours) |
| --- | --- | --- | --- | --- | --- | --- | --- | --- | --- | --- | --- | --- | --- | --- | --- | --- | --- | --- | --- | --- |
| Biotin-NKVSSSHIGCLVHGCFNASIPK (cysteine pairing not given here) [biotinylated 22mer] | Rrn3 bound to beads | sufficient to mediate interaction between Rpa43 and Rrn3 |  |  |  |  |  |  |  |  |  |  |  |  |  |  |  |  |  |  |
| NKVSSSHIGCLVHGCFNASIPK (listed as Homo sapiens) [22mer, amino acids 137 to 158 of mouse Rpa43] |  |  | inhibits cell growth; also recorded: significant decrease in the rate of cell division | minimal effect on the growth | inhibits transcription; also recorded: transcription was inhibited | inhibits cell division; also recorded: significantly inhibited cell growth in a dose-dependent manner | appeared to be apoptotic | decreased rate of cell accumulation | no effects on the growth | inhibited the growth |  |  |  |  |  |  |  |  |  |  |
| YGRKKEEQRRNKVSSSHIGCLVHGCFNASIPK (1st ten amino acids are TAT peptide from HIV; last 22 amino acids are from Homo sapiens) [TAT-22mer, 22mer with ten TAT amino acids added to the N-terminus] |  |  |  | minimal effect on cell accumulation |  | cell growth was inhibited |  |  |  |  | ~100% | 70% | very significant effects on the growth | did not exclude the dye | significant response | significantly reduced the number of viable cells | very significant effects on the growth | significant inhibition of cell growth | very significant effects on the growth | 90% |
